Consider one molecule from ChEMBL document CHEMBL1208672, “Novel 8-arylated purines as inhibitors of glycogen synthase kinase” (Eur J Med Chem, 2010).

The structures appear in SMILES notation.

Test [1] addresses T1, Cyclin-dependent kinase 5/CDK5 activator 1 (Homo sapiens) (UniProt Q00535+Q15078). Briefly: Inhibition of CDK5/p25 assessed as residual activity at 1 uM relative to control. The class given is protein-complex assay.
Test [2] deals with Glycogen synthase kinase-3 beta (Homo sapiens, UniProt P49841). Briefly: Inhibition of human GSK3-beta assessed as residual activity at 10 uM relative to control.
In test [3] the target is MAP kinase-activated protein kinase 2 (Homo sapiens) (UniProt P49137). The test can be described thus: Inhibition of MAPKAPK2 assessed as residual activity at 10 uM relative to control.
Test [4] deals with Insulin-like growth factor 1 receptor (Homo sapiens) (UniProt P08069). The test can be described thus: Inhibition of IGF1R assessed as residual activity at 10 uM relative to control.
Test [5] addresses Casein kinase I isoform alpha (Homo sapiens) (UniProt P48729). The test can be described thus: Inhibition of CK1alpha1 assessed as residual activity at 10 uM relative to control.
Test [6] addresses Mitogen-activated protein kinase 3 (Homo sapiens) (UniProt P27361). Briefly: Inhibition of ERK1 at 10 uM relative to control. Further details: scale not given: the % may be the effect or the level left.
Test [7] has as its target T1, Cyclin-dependent kinase 5/CDK5 activator 1 (Homo sapiens). Briefly: Inhibition of CDK5/p25 assessed as residual activity at 10 uM relative to control. It counts as protein-complex assay.
Test [8] concerns the target T2, Tyrosine-protein kinase receptor TYRO3 (Homo sapiens) (UniProt Q06418).
T2 sequence (whole entry): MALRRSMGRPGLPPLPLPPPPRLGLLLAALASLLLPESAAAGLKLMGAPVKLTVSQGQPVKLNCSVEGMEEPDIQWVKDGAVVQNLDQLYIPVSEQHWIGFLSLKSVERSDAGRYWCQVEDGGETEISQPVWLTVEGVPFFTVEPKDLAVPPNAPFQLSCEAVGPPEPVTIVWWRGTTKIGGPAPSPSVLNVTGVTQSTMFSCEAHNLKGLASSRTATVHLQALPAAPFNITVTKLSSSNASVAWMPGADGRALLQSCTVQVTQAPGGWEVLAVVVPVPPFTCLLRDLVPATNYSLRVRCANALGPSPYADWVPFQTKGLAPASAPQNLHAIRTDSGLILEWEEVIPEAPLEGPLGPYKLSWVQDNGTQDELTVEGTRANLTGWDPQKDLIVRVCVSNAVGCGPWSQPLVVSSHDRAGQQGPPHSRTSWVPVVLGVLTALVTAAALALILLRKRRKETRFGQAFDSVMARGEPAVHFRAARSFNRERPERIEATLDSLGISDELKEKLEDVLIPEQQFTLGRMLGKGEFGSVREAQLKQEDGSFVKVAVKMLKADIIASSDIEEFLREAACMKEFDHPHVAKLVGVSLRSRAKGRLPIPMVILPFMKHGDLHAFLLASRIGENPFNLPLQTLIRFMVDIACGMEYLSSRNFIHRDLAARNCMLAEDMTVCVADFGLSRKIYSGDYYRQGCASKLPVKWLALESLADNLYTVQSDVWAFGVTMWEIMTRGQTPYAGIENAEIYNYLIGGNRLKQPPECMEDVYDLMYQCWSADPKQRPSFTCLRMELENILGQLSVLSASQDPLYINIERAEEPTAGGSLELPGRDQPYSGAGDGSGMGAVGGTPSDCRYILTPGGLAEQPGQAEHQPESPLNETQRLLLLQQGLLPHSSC
The test can be described thus: Inhibition of TYRO3/SKY assessed as residual activity at 10 uM relative to control.

The target in test [9] is Epidermal growth factor receptor (Homo sapiens) (UniProt P00533). The test can be described thus: Inhibition of EGFR assessed as residual activity at 10 uM relative to control.
For test [10], the target named is Glycogen synthase kinase-3 alpha (Homo sapiens) (UniProt P49840). Briefly: Inhibition of human GSK3alpha assessed as residual activity at 1 uM relative to control.
Test [11] deals with Mitogen-activated protein kinase 8 (Homo sapiens) (UniProt P45983). The test can be described thus: Inhibition of JNK1 assessed as residual activity at 10 uM relative to control.
Test [12] deals with Casein kinase II subunit alpha (Homo sapiens) (UniProt P68400). Briefly: Inhibition of CK2alpha assessed as residual activity at 10 uM relative to control.
Sequence of Casein kinase II subunit alpha (Homo sapiens) (P68400 whole entry, looked up): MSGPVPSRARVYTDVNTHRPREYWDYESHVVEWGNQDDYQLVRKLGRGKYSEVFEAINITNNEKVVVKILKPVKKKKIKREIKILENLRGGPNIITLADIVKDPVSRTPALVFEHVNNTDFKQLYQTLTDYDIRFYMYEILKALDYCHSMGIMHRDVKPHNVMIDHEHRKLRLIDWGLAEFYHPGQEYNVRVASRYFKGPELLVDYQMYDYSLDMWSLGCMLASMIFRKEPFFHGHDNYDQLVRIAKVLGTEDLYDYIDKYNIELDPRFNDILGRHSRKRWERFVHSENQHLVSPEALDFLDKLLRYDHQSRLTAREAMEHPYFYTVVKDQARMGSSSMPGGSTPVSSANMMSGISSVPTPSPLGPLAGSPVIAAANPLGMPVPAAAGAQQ

T1 sequence (Q00535 whole entry): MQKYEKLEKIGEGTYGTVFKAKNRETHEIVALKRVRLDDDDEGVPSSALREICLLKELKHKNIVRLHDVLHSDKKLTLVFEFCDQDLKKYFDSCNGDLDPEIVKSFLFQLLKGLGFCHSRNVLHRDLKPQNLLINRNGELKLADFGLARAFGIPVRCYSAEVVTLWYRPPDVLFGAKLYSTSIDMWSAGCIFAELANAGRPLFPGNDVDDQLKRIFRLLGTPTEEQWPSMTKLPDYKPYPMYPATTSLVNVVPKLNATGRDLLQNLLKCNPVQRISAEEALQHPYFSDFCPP
T1 sequence (Q15078 99-307 partner limits assumed): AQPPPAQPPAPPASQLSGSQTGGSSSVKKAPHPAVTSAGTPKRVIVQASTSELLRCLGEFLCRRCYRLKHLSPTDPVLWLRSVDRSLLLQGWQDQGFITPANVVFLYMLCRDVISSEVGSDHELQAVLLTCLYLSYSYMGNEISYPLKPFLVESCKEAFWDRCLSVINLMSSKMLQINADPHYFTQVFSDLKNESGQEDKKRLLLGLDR
Sequence of Casein kinase I isoform alpha (Homo sapiens) (P48729 2-337 limits assumed): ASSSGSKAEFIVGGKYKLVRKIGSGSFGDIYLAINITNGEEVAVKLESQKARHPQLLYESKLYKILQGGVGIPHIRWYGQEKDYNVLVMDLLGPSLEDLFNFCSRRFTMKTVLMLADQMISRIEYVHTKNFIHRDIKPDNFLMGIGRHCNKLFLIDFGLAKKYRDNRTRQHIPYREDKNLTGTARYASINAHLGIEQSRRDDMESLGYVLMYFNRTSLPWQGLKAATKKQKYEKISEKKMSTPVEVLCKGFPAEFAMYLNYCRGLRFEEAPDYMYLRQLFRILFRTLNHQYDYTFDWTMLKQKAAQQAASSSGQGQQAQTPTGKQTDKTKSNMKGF
Sequence of Mitogen-activated protein kinase 8 (Homo sapiens) (P45983 whole entry): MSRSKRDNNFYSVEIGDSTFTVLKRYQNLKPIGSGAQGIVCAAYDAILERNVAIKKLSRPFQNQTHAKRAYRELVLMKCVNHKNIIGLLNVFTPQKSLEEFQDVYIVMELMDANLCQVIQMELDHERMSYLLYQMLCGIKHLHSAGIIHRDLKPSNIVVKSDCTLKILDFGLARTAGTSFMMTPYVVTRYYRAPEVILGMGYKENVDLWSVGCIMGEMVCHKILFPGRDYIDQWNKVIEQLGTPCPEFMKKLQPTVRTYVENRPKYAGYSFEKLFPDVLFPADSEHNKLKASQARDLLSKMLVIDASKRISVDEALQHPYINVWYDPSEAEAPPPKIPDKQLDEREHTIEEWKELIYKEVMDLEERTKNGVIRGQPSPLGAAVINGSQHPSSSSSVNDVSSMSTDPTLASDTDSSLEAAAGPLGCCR
Sequence of Glycogen synthase kinase-3 beta (P49841 whole entry, looked up): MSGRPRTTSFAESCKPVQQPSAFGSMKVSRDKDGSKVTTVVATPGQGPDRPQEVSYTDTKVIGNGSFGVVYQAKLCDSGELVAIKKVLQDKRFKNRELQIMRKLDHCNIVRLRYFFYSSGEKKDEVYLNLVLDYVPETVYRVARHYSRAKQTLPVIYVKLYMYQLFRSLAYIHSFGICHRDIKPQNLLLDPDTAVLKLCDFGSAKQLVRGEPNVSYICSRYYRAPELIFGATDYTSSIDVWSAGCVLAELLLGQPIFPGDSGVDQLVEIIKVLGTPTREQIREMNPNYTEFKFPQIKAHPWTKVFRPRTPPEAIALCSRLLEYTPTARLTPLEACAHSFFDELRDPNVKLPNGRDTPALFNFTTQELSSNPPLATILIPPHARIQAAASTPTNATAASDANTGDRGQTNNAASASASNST
Sequence of Epidermal growth factor receptor (Homo sapiens) (P00533 whole entry): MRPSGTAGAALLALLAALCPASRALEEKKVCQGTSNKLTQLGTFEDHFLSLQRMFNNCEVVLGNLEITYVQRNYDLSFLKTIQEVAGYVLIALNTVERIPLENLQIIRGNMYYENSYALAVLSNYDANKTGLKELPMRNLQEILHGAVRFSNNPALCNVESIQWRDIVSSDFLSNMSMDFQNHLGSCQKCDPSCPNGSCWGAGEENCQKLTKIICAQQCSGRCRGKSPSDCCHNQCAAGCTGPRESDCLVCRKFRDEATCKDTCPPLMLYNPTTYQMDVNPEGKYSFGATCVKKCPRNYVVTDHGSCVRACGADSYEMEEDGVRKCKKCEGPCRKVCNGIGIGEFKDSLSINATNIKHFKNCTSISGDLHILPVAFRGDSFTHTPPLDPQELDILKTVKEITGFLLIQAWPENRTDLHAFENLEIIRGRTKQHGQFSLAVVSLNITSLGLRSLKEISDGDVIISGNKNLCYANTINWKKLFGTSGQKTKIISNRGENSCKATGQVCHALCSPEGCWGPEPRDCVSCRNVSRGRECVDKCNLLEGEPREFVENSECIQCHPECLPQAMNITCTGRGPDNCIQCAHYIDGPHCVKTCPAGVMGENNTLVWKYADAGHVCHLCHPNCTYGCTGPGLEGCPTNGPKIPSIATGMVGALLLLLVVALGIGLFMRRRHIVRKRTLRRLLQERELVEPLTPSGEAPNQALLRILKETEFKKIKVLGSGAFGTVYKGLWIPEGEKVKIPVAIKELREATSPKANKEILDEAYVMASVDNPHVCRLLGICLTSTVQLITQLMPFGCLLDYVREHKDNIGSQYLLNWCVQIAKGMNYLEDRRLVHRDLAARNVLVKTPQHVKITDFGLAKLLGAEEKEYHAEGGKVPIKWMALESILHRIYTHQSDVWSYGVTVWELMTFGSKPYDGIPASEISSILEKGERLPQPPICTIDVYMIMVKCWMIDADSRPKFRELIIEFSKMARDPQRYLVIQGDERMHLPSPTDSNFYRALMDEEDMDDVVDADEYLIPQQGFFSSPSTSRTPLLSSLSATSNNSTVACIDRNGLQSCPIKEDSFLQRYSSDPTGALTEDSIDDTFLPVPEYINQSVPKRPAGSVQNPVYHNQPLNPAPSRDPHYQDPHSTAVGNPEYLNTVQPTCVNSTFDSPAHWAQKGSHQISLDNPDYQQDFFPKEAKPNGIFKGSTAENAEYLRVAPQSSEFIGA
Sequence of MAP kinase-activated protein kinase 2 (Homo sapiens) (P49137 whole entry, looked up): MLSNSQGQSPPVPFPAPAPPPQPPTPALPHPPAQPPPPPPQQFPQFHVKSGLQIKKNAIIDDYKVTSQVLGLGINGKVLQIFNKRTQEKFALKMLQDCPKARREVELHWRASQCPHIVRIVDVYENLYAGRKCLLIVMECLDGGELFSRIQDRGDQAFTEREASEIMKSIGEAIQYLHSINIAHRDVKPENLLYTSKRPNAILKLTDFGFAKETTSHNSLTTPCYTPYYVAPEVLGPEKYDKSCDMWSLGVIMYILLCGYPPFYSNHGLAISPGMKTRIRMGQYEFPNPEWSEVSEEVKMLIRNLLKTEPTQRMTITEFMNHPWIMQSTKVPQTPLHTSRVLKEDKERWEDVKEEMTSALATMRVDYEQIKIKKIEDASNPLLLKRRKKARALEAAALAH
Sequence of Glycogen synthase kinase-3 alpha (Homo sapiens) (P49840 2-483 limits assumed): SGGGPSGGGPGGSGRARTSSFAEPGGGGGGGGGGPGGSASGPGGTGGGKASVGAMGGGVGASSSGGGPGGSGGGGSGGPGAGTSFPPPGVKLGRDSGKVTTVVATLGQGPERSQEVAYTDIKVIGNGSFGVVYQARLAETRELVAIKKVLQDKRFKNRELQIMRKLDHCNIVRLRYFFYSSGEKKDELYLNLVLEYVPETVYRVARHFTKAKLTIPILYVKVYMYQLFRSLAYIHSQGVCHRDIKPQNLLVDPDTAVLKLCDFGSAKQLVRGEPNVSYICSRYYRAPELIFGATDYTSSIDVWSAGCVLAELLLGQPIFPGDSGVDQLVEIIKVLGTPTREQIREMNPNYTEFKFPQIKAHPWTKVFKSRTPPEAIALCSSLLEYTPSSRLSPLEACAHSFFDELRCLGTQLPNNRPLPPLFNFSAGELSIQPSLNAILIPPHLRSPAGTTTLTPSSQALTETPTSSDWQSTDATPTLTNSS
Sequence of Mitogen-activated protein kinase 3 (Homo sapiens) (P27361 whole entry): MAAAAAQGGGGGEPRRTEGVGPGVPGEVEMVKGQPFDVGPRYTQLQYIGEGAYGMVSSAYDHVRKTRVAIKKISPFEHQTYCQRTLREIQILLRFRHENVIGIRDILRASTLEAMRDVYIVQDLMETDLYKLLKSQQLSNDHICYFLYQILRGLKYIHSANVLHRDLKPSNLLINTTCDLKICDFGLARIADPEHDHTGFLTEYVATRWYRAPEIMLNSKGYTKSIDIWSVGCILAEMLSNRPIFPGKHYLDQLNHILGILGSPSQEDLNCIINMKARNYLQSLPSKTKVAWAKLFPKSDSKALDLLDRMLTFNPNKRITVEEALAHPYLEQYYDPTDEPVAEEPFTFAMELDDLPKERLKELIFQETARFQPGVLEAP

On to `c1ccc(Nc2ncnc3[nH]c(-c4ccccc4)nc23)cc1`, for which the Activity in test [1] is 63%; in test [2], 18.6%; in test [3], 78.2%; in [4], 96.2%; in test [5], 100%; in test [6], 110%. Moreover, the Activity in test [7] turned out to be 59.8%; in test [8] it was 96.7%; in test [9], 32.7%; in [10], 5%; in test [11] it was 93.3%; in [12] it was 77%.
